Reference: patent US10000471B2, “Pyrazole P38 map kinase inhibitors” (Respivert Limited, priority 2010, dated 2018)

Tests used:
[1] = target: T1, p38 MAPKα isoform (MAPK14) (Homo sapiens, UniProt Q16539); test: Enzyme inhibition assay (FRET, Z-LYTE), p38 MAPKα via MAPKAP-K2 activation; assay type: biochemical; conditions: read-out: Enzyme Inhibition IC50 p38α
T1 construct: purchased Invitrogen
Method in brief: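 Z-LYTE FRET format, in which protease cleaves only non-phosphorylated peptide, read after 1 h development. Compound was mixed with p38 MAPKα for 2 h at RT, and inhibition was gauged from MAPKAP-K2 activation/phosphorylation rather than directly. Percent inhibition against an uninhibited control was fitted to give IC50.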

p38 MAPKγ (MAPK12) = target: T2, p38 MAPKγ (MAPK12) (Homo sapiens, UniProt P53778); test: Enzyme inhibition assay (FRET, Z-LYTE), p38 MAPKγ; assay type: biochemical; conditions: read-out: Enzyme Inhibition IC50 p38γ
T2 construct: purchased Invitrogen
T2 sequence (P53778 1-367): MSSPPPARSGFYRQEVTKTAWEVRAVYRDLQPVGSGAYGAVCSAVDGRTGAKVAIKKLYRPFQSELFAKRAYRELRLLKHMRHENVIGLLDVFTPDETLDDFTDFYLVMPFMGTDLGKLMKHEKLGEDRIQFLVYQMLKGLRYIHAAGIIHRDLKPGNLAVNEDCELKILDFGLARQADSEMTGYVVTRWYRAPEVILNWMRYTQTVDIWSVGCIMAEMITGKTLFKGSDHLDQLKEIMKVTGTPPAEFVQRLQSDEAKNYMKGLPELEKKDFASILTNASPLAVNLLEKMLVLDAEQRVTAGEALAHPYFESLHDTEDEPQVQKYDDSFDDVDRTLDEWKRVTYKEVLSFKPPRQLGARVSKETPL
Method in brief: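 Z-LYTE FRET readout: after 1 h kinase reaction (ATP 100 μM, peptide 2 μM) following 2 h RT enzyme–compound preincubation in HEPES, protease cleaves only unphosphorylated peptide. Percent inhibition from donor/acceptor ratio relative to control; IC50 fitted from the curve.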

[2] = test system: TNFα release in THP-1 cells; test: LPS-induced TNFα release in THP-1 cells; assay type: cell-based, human; conditions: Homo sapiens
Method in brief: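 IC50 derived from concentration-response of TNFα inhibition relative to vehicle, with TNFα quantified by sandwich ELISA in supernatants. THP-1 cells were challenged 4 hr with LPS (E. coli, 3 μg/mL).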

[3] = test system: TNFα release in d-U937 cells; test: LPS-induced TNFα release in d-U937 cells; assay type: cell-based, human; conditions: Homo sapiens, dU937, relative to 10 μg/mL BIRB796, read-out: LPS/TNFα REC50 d-U937
Method in brief: (§1)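 Sandwich ELISA of TNFα and IL-8 in supernatants after 4 hr 0.1 μg/mL LPS (E. coli O111:B4) challenge of U937 cells differentiated with PMA 100 ng/ml for 48–72 hr, compound added 2 hr beforehand. IL-8: IC50 from inhibition versus vehicle; TNFα: REC50 from inhibition as percentage of 10 μg/mL BIRB796 effect.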

[4] = test system: IL-8 release in d-U937 cells; test: LPS-induced IL-8 release in d-U937 cells; assay type: cell-based, human; conditions: Homo sapiens, dU937
Method in brief: as §1

[5] = test system: ICAM-1 induction in BEAS2B cells; test: Poly I:C-induced ICAM-1 induction in BEAS2B cells; assay type: cell-based, human; conditions: Homo sapiens, BEAS-2B, read-out: PolyIC/ICAM1 IC50 BEAS2B
Method in brief: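 IC50 reflects inhibition of cell-surface ICAM-1 relative to vehicle, read by ELISA (OD450 against 655 nm) and divided by crystal violet OD595 for cell number. Readings were taken 18 hr after transfection of 1 μg/mL poly I:C into BEAS2B cells. Compound was added 2 hr before stimulation.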

[6] = test system: Differentiated U937 cells; test: Cell viability MTT assay; assay type: cell-based, human; conditions: negative = apparent increase in viability; for MTT Assay (Viability) 4 h d-U937, percentage loss of cell viability: 4 hr in 5% FCS; for MTT Assay (Viability) 24 h d-U937, percentage loss of cell viability: 24 h in 10% FCS
Method in brief: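 Differentiated U937 cells pre-incubated with compound either 4 hr in 5% FCS or 24 h in 10% FCS, then 1 hr MTT. Formazan dissolved in DMSO, absorbance at 550 nm. Percentage viability loss relative to 0.5% DMSO vehicle; apparent increases appear as negative percentages.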

T1 sequence (Q16539 whole entry, canonical isoform): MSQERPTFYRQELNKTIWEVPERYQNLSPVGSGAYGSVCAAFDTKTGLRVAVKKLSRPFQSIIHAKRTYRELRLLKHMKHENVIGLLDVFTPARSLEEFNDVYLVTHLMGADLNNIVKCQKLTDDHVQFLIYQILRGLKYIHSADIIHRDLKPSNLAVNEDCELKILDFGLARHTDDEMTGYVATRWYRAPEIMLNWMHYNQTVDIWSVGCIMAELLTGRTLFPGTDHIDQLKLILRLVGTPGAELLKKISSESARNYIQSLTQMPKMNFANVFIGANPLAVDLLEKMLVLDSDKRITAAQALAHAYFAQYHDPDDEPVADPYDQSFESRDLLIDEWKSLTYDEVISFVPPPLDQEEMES

Row | Structure (SMILES) | IC50 [1] | IC50 (p38 MAPKγ (MAPK12)) | IC50 [2] | EC50 [3] | IC50 [4] | IC50 [5] | MTT Assay (Viability) 4 h d-U937, percentage loss of cell viability [6] | MTT Assay (Viability) 24 h d-U937, percentage loss of cell viability [6]
1 | COCC(=O)Nc1cc(Oc2ccc(NC(=O)Nc3cc(C(C)(C)C)nn3-c3ccc(OC)cc3)c(Cl)c2Cl)ccn1 [Example 44, N-(4-(4-(3-(3-tert-butyl-1-(4-methoxyphenyl)-1H-pyrazol-5-yl)ureido)-2,3-dichlorophenoxy)pyridin-2-yl)-2-methoxyacetamide] | 7.9 nM | 48.4 nM | 1.8 nM | 2.2 nM | 20.7 nM | 0.9 nM | −25.9% | 87.1%
2 | COCC(=O)Nc1cc(Oc2ccc(NC(=O)Nc3cc(C(C)(C)C)nn3-c3ccc(C)cc3)c3cccnc23)ccn1 [Example 6, N-(4-(5-(3-(3-tert-butyl-1-p-tolyl-1H-pyrazol-5-yl)ureido)quinolin-8-yloxy)pyridin-2-yl)-2-methoxyacetamide] | 6.7 nM | 57.9 nM | 1.6 nM | 0.1 nM | 3.9 nM | 7.2 nM | −21.3% | −14.6%
3 | COCC(=O)Nc1cc(Oc2ccc(NC(=O)Nc3cc(C(C)(C)C)nn3-c3ccc(C)cc3)c(Cl)c2Cl)ccn1 [Example 36, N-(4-(4-(3-(3-tert-butyl-1-p-tolyl-1H-pyrazol-5-yl)ureido)-2,3-dichlorophenoxy)pyridin-2-yl)-2-methoxyacetamide] | 18.4 nM | 380 nM | 2.2 nM | 0.7 nM | 3.4 nM | 1.9 nM | −11.2% | 68.8%
4 | COc1ccc(-n2nc(C(C)(C)C)cc2NC(=O)Nc2ccc(Oc3ccnc(NC(=O)CN4CCOCC4)c3)c(Cl)c2Cl)cc1 [Example 45, N-(4-(4-(3-(3-tert-butyl-1-(4-methoxyphenyl)-1H-pyrazol-5-yl)ureido)-2,3-dichlorophenoxy)pyridin-2-yl)-2-morpholinoacetamide] | 27.4 nM | 84.7 nM | 0.8 nM | 0.7 nM | 1 nM | 9 nM | −4.8% | 56.2%
5 | COCC(=O)Nc1nccc(Oc2ccc(NC(=O)Nc3cc(C(C)(C)C)nn3-c3ccc(OC)cc3)c(Cl)c2Cl)n1 [Example 23, N-(4-(4-(3-(3-tert-Butyl-1-(4-methoxyphenyl)-1H-pyrazol-5-yl)ureido)-2,3-dichlorophenoxy)pyrimidin-2-yl)-2-methoxyacetamide] | 15.7 nM | 47.9 nM | 2.2 nM | 0.3 nM | 11.9 nM | 2 nM | −37.1% | −24.5%
6 | COc1ccc(-n2nc(C(C)(C)C)cc2NC(=O)Nc2ccc(Oc3ccnc(NC(=O)N4CC[C@H](N(C)C)C4)c3)c(Cl)c2Cl)cc1 [Example 82, (S)-N-(4-(4-(3-(3-tert-butyl-1-(4-methoxyphenyl)-1H-pyrazol-5-yl)ureido)-2,3-dichlorophenoxy)pyridin-2-yl)-3-(dimethylamino) pyrrolidine-1-carboxamide] | 14.1 nM | 33.6 nM | 0.3 nM | 1.8 nM | 4.6 nM | 2.1 nM | −13.2% | 20.5%
7 | Cc1ccc(-n2nc(C3(C)CCCCC3)cc2NC(=O)Nc2ccc(Oc3ccnc(NC(=O)N4CCCC4)c3)c(Cl)c2Cl)cc1 [Example 74, N-(4-(2,3-dichloro-4-(3-(3-(1-methylcyclohexyl)-1-p-tolyl-1H-pyrazol-5-yl)ureido)phenoxy)pyridin-2-yl)pyrrolidine-1-carboxamide] | 328 nM | 744 nM | 11.5 nM | 0.5 nM | 2.7 nM | 4.6 nM | 1.2% | 5.5%
8 | COc1ccc(-n2nc(C(C)(C)C)cc2NC(=O)Nc2ccc(Oc3cc(NC(=O)NCCN(C)C)ncn3)c(Cl)c2Cl)cc1 [Example 100] | 5.3 nM | 59.4 nM | 0.7 nM | 0.3 nM | 12.9 nM | 2 nM | −43.0% | 17.2%
9 | COc1ccc(-n2nc(C(C)(C)C)cc2NC(=O)Nc2ccc(Oc3ccnc(NC(=O)NCCO)c3)c(Cl)c2Cl)cc1 [Example 66, 1-(4-(4-(3-(3-tert-butyl-1-(4-methoxyphenyl)-1H-pyrazol-5-yl)ureido)-2,3-dichlorophenoxy)pyridin-2-yl)-3-(2-hydroxyethyl)urea] | 21.6 nM | 45 nM | 1.1 nM | 0.3 nM | 4.9 nM | 5.5 nM | 15.0% | 90.3%
10 | CN(C)CCNC(=O)Nc1cc(Oc2ccc(NC(=O)Nc3cc(C(C)(C)C)nn3-c3ccc(CO)cc3)c(Cl)c2Cl)ncn1 [Example 101, 1-(3-tert-butyl-1-(4-hydroxymethylphenyl)-1H-pyrazol-5-yl)-3-(2,3-dichloro-4-(6-(3-(2-(dimethylamino)ethyl)ureido)pyrimidin-4-yloxy)phenyl)urea] | 5.6 nM | 57.7 nM | 10.4 nM | 1.1 nM | 3.1 nM | 5.2 nM | 2.8% | 73.9%
11 | CN(C)CCCC(=O)Nc1cc(Oc2ccc(NC(=O)Nc3cc(C(C)(C)C)nn3-c3ccc(CO)cc3)c(Cl)c2Cl)ccn1 [Example 47, N-(4-(4-(3-(3-tert-butyl-1-(4-hydroxymethylphenyl)-1H-pyrazol-5-yl)ureido)-2,3-dichlorophenoxy)pyridin-2-yl)-4-(dimethylamino) butanamide] | 2.2 nM | 5.9 nM | 0.5 nM | 1.6 nM | 8.2 nM | 6.4 nM | −42.5% | 85.0%
12 | COCC(=O)Nc1cc(Oc2ccc(NC(=O)Nc3cc(C(C)(C)C)nn3-c3ccc(CO)cc3)c(Cl)c2Cl)ccn1 [Example 49, N-(4-(4-(3-(3-tert-butyl-1-(4-hydroxymethylphenyl)-1H-pyrazol-5-yl)ureido)-2,3-dichlorophenoxy)pyridin-2-yl)-2-methoxyacetamide] | 16.5 nM | 36 nM | 1.2 nM | 0.7 nM | 2.2 nM | 1.5 nM | −4.8% | 92.2%
13 | CC(C)(C)c1cc(NC(=O)Nc2ccc(Oc3ccnc(NC(=O)NC4CC4)c3)c(Cl)c2Cl)n(-c2ccc(CO)cc2)n1 [Example 55, 1-(4-(4-(3-(3-tert-butyl-1-(4-hydroxymethylphenyl)-1H-pyrazol-5-yl)ureido)-2,3-dichlorophenoxy)pyridin-2-yl)-3-cyclopropylurea] | 50.1 nM | 200 nM | 4.8 nM | 1 nM | 3.1 nM | 1.7 nM | −15.0% | 49.2%
